Data from ChEMBL document CHEMBL3608277 (ACS Med Chem Lett, 2015).
Active and inactive are the calls of the source. The rule behind the calls is not given here.

Experiments:
[1] = tested on: Human immunodeficiency virus 1; assay: Antiviral activity against HIV1 3B infected in CD4/CXCR4 expressing human MAGI cells incubated for 48 hrs by beta-galactosidase reporter gene assay; type: functional, organism-based; conditions: Human immunodeficiency virus 1, 3B
[2] = tested on: Human immunodeficiency virus 1; assay: Antiviral activity against HIV1 BaL infected in CD4/CCR5 expressing human MAGI cells incubated for 48 hrs by beta-galactosidase reporter gene assay; type: functional, organism-based; conditions: Human immunodeficiency virus 1, BaL
[3] = molecular target: C-X-C chemokine receptor type 4 (Homo sapiens) (UniProt P61073); assay: Inhibition of CXCR4 in human Jurkat cells assessed as reduction in HIV-Nef-M1-induced mitochondrial membrane depolarization at 0.01 to 100 uM by JC1 dye based fluorescence depolarization assay; type: cell-based
[4] = Toxicity against human PBMC by MTS assay; type: cell-based; conditions: read-out: TC50 (the source's name)
[5] = Toxicity against human MAGI cells incubated for 48 hrs by MTS assay; type: cell-based; conditions: read-out: TC50
[6] = tested on: Human immunodeficiency virus 1; assay: Antiviral activity against HIV1 BaL infected in CD4/CCR5 expressing human PBMC cells by reverse transcriptase activity and/or p24 antigen content detection based assay; type: functional, organism-based; conditions: Human immunodeficiency virus 1, BaL
[7] = tested on: Human immunodeficiency virus 1; assay: Antiviral activity against HIV1 3B infected in CD4/CXCR4 expressing human PBMC cells by reverse transcriptase activity and/or p24 antigen content detection based assay; type: functional, organism-based; conditions: Human immunodeficiency virus 1, 3B
[8] = molecular target: T1, C-C chemokine receptor type 5 (Homo sapiens, UniProt P51681); assay: Displacement of [125I]-MIP-1beta form CCR5 (unknown origin) at 100 uM
Target sequence in this assay (P51681 whole entry, looked up): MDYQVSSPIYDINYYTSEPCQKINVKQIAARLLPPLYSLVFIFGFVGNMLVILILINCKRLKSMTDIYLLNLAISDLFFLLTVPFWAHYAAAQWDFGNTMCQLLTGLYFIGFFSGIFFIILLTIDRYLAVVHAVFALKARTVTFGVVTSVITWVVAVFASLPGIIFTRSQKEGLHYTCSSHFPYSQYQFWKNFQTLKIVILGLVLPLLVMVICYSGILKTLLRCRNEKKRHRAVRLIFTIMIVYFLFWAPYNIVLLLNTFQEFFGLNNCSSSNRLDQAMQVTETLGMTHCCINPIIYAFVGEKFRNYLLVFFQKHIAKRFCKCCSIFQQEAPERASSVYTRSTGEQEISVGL

[9] = molecular target: T1, C-C chemokine receptor type 5; assay: Displacement of [125I]-MIP-1beta form CCR5 (unknown origin) at 1 mM
Target sequence in this assay (P51681 whole entry, looked up): as above

[10] = Toxicity against HEK293 cells derived ACTOne-X4 cells; type: cell-based; conditions: human
[11] = tested on: Human immunodeficiency virus 2; assay: Antiviral activity against HIV2 CDC310319 infected in human PBMC cells; type: functional, organism-based; conditions: Human immunodeficiency virus 2, CDC310319, PBMC
[12] = molecular target: C-X-C chemokine receptor type 4 (Homo sapiens) (UniProt P61073); assay: Displacement of [125I]-SDF1 form CXCR4 (unknown origin) at 1 mM
[13] = Inhibition of HIV pNL4-3 heterodimeric reverse transcriptase p66/p51 incubated at 37 degC for 1 hr by scintillation counting method; parameters: species or system Human immunodeficiency virus
[14] = tested on: Human immunodeficiency virus; assay: Antiviral activity against NNRTI-resistant HIV containing reverse transcriptase K103N/Y181C mutation; type: functional, organism-based; conditions: Human immunodeficiency virus 1
[15] = tested on: Human immunodeficiency virus; assay: Antiviral activity against wild type HIV; type: functional, organism-based; conditions: Human immunodeficiency virus 1
[16] = Toxicity against human HeLa67 cells; type: cell-based
[17] = molecular target: T1, C-C chemokine receptor type 5; assay: Displacement of [125I]-MIP-1beta form CCR5 (unknown origin)
Target sequence in this assay (P51681 whole entry): as the sequence (P51681 whole entry, looked up) above

[18] = tested on: Human immunodeficiency virus; assay: Resistance index, ratio of EC50 for […] HIV containing reverse transcriptase K103N/Y181C mutation to EC50 for wild type HIV; type: functional

Chain of C-X-C chemokine receptor type 4 (Homo sapiens) (P61073 whole entry): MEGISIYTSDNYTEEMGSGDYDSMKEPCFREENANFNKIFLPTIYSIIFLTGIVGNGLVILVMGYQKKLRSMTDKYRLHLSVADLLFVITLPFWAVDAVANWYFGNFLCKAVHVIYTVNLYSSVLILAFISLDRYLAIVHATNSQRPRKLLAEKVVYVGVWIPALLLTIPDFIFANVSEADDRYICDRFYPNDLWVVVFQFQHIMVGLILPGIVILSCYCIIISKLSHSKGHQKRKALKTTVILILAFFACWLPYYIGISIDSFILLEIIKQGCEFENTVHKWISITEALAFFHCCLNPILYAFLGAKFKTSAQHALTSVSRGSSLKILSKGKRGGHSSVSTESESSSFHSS

`CCc1cc(CN2CCC(c3[nH]ncc3Cc3ccccc3)CC2)[nH]n1` gave an IC50 [1] of 68 µM and an IC50 [2] of 60 µM.
Molecule `c1ccc(Cc2cn[nH]c2C2CCN(Cc3ccccn3)CC2)cc1` has an IC50 [1] of 25 µM and an IC50 [2] of 17 µM.
For `Cc1nnc(C(C)C)n1[C@H]1C[C@H]2CC[C@@H](C1)N2CC[C@H](NC(=O)C1CCC(F)(F)CC1)c1ccccc1`, the inhibition [3] was “inactive”.
In the case of `Nc1cc(CN2CCC(c3[nH]ncc3Cc3ccccc3)CC2)ncn1`, the IC50 [1] is reported as 13 µM and the IC50 [2] is reported as 17 µM.
Work on `CCc1nccc(CN2CCC(c3[nH]ncc3Cc3ccccc3)CC2)n1` yielded an IC50 [1] of 57 µM and an IC50 [2] of 66 µM.
Molecule `c1ccc(Cc2cn[nH]c2C2CCN(Cc3cccnc3)CC2)cc1` has an IC50 [1] of 5.8 µM and an IC50 [2] of 16 µM.
With `c1ccc(Cc2cn[nH]c2C2CCN(Cc3ccncc3)CC2)cc1` the IC50 [1] was 0.8 µM, the IC50 [2] was 3.8 µM and the CC50 [4] was > 100 µM. For the same molecule, the CC50 at 48 h [5] was > 300 µM, the IC50 [6] was 2.3 µM and the IC50 [7] was 2.3 µM. For the same molecule, the inhibition [8] was 38%, the inhibition [9] was 88% and the CC50 [10] was > 200 µM. For the same molecule, the IC50 [11] was 31 µM, the inhibition [12] was 0% and the IC50 [13] was 9 µM. For the same molecule, the EC50 [14] was 19 µM and the EC50 [15] was 0.9 µM.
`Nc1ncc(N2CCC(c3[nH]ncc3Cc3ccccc3)CC2)cn1` showed an IC50 [1] of 105 µM and an IC50 [2] of 95 µM.
Molecule `c1ccc(-c2cn[nH]c2C2CCN(Cc3cccnc3)CC2)cc1` has an IC50 [1] of 44 µM and an IC50 [2] of 64 µM.
For `c1cc(CN2CCCNCCNCCCNCC2)ccc1CN1CCCNCCNCCCNCC1`, the inhibition [3] was “Active”.
In the case of `Cc1cn([C@H]2C[C@H](N=[N+]=[N-])[C@@H](CO)O2)c(=O)[nH]c1=O`, the inhibition [3] is reported as “inactive”.
In the case of `Cc1ccc(-c2ccc3c(c2)C=C(C(=O)Nc2ccc(C[N+](C)(C)C4CCOCC4)cc2)CCC3)cc1.[Cl-]`, the Activity [16] is reported as “Toxic”.
For `COc1ncc(CN2CCC(c3[nH]ncc3Cc3ccccc3)CC2)cn1`, the IC50 [1] was > 200 µM, the IC50 [2] was 72 µM and the IC50 [17] was 70 µM.
With `Nc1ccnc(CN2CCC(c3[nH]ncc3Cc3ccccc3)CC2)n1` the IC50 [1] was 81 µM and the IC50 [2] was 83 µM.
In the case of `O=C1Nc2ccc(Cl)cc2[C@@](C#CC2CC2)(C(F)(F)F)O1` [EFAVIRENZ], the “Ratio EC50” value [18] is reported as 70.
`CC(C)c1nccc(CN2CCC(c3[nH]ncc3Cc3ccccc3)CC2)n1` gave an IC50 [1] of 6.4 µM and an IC50 [2] of 13 µM.
